In a melting point compilation (Tetko et al.; mined from patent text by program, amines drawn as free bases though some values may be those of a salt):

| melting point | SMILES |
| --- | --- |
| 185 to 187 °C | O=C1Cc2cccc(C(=O)c3ccc(F)cc3)c2N1 |
| 160 °C | COc1ccc(Cn2c(NC3CCN(CCNc4ncccn4)CC3)nc3ccccc32)cc1 |
| > 300 °C | CCn1cc(C(=O)O)c(=O)c2cc(F)c(N3Cc4ccccc4C3)cc21 |
| 136 to 137 °C | COc1ccccc1OCC(O)CN1CCC(N2CCN(c3ccc(Cl)cc3)C2=O)CC1 (stereo not drawn) |
| 227 °C | O=C(O)c1ccc(COc2ccccc2-c2cc(O)c(SCCc3ccccc3)c(=O)o2)cc1 |
| 161 to 164 °C | O=C(O)c1cccnc1Oc1cccc(Cl)c1 |
| 244 to 245 °C | Oc1ccc2c(ccc3ccccc32)c1-c1c(O)ccc2c1ccc1ccccc12 |
| 128 °C | CC(C)Oc1ccc(CCCOc2cc(CCC(=O)O)n(C(C)C)n2)c(Oc2ncc(C(F)(F)F)cc2Cl)c1 |
| 186 to 188 °C | COC(=O)[C@H]1[C@H](N2C(=O)c3ccccc3C2=O)C(=O)N1Cc1ccc(OC)cc1OC (relative stereo) |
| > 90 °C | CCCCc1nn(-c2cc([N+](=O)[O-])ccc2Cl)c(=O)n1Cc1ccc(-c2ccccc2S(N)(=O)=O)cc1 |
| 219 to 221 °C | CC(=O)OC1NC(=O)C2=C1c1ccc(Cl)cc1C(c1ccccc1Cl)=NC2 (stereo not drawn) |
| 179 to 180 °C | Nc1cnc2cc3c(cc2c1-c1ccccc1Cl)CCC3 |
| 145 to 146 °C | O=c1ccn(-c2ccccc2C(F)(F)F)nc1-c1ccnn1-c1ccccc1 |
| 94 to 96.5 °C | O=C(CCl)N(c1ccccc1)c1cccc(Cl)c1 |
| 236 to 241 °C | CN(C(=O)CN1C(=O)c2ccccc2C1=O)c1ccc(Cl)c(CO)c1Cl |
| 265 to 268 °C | O=C1NC(=O)c2c1c(-c1ccccc1Cl)cc1[nH]c3ccc(C(O)CO)cc3c21 (stereo not drawn) |
| 280 °C | COc1ccccc1-n1c(=O)[nH]c2c(C(N)=O)nc(-c3cccc4[nH]ncc34)nc21 |
| 183 to 185 °C | CCCNC(=O)CSc1nc(-c2ccccc2)c(-c2ccccc2)[nH]1 |
| 260 to 262 °C | O=C(O)c1cc(O)cc2cc(-c3ccc(O)cc3)oc12 |
| 111 to 113 °C | COc1ccc([C@@H]2Sc3ccccc3N(CCN(C)C)C(=O)[C@@H]2OC(=O)Nc2cccc(F)c2)cc1 (relative stereo) |
| 162 °C | c1cnc(NCCN2CCC(=C3c4ccccc4CCn4ncnc43)CC2)nc1 |
| 207 to 210 °C | COC(=O)c1cc(C(=O)NNC(=O)c2ccco2)c2cc(Cc3ccc(F)cc3)cnc2c1O |

| melting point | SMILES |
| --- | --- |
| 112 to 113 °C | CCCC(=O)Oc1ccc(C2=NNC(=O)CC2C)cc1 (stereo not drawn) |
| 229 to 230 °C | Cc1nnc(-c2ccc3occ(-c4ccc(S(=O)(=O)Cc5ccccc5)cc4)c3c2)o1 |
| 234 to 236 °C | O=c1cc(-c2ccsc2)c2ccc(O)cc2o1 |
| 104 to 106 °C | CCCCCOc1ccc(C2SC(=O)NC2=O)cc1OCC (stereo not drawn) |
| 230 °C | Cc1cccc(C(=O)Nc2nc3ccccc3c(NCc3ccccc3)c2C#N)c1 |
| 161 °C | CC(C)N(C(=O)c1cc2ccccc2c(-c2ccccc2Cl)n1)C(C)C |
| 204 to 206 °C | CC(C)N1C(=O)c2cncnc2Nc2ccccc21 |
| 98 to 102 °C | CCCNC(=O)C(CCC(=O)NCCCOC(C)=O)NC(=O)OCc1ccccc1 (stereo not drawn) |
| 218 to 220 °C | COc1ccc2c(=O)cc(-c3n[nH]c4ccccc34)oc2c1 |
| 85 to 86 °C | CCOC(=O)CC(=O)c1cc(F)c(OP(=O)(Oc2ccccc2)Oc2ccccc2)nc1Nc1ccc(F)cc1F |
| 111 to 114 °C | NCCNC(=O)c1cc2c(Oc3ccc(Cl)cc3)cncc2s1 |
| 86 to 88 °C | O=C(O)CCCCCCCn1nc(-c2ccccc2)c(-c2ccccc2)n1 |
| 182 to 183 °C | COC1=CC(=O)c2ccccc2C1=O |
| 226 to 228 °C | CC(CN(C)C)C(CNC(N)=O)(c1ccccc1)c1ccccc1 (stereo not drawn) |
| 212 to 213 °C | Brc1cnc2c(c1)ncn2-c1cccc(-c2cccnc2)c1 |
| 57 to 58 °C | COc1ccc(Oc2ccccc2)c(NS(=O)(=O)C(F)(F)F)c1 |
| 85 to 86 °C | c1ccc2cc(Cc3nc4cc(CCC5OCCO5)ccc4o3)ccc2c1 |
| 183 to 185 °C | CC1(C)C=Cc2cc(C(=O)NCCN3C(=O)c4ccccc4C3=O)ccc2O1 |
| 127 to 129 °C | Cc1c(OCc2ccc(F)cc2F)ccn(Cc2cccc(F)c2)c1=O |
| 195 to 196 °C | COc1ccc(-c2cccs2)cc1/C=C/C(=O)c1ccc(C(=O)O)cc1 |
| 129 to 132 °C | OCCOc1cnccc1CCCOc1cccnc1Oc1ccccc1 |

Continued, compound first:

| SMILES | melting point |
| --- | --- |
| COc1ccc2[nH]c(S(=O)Cc3ncc(C)c(N(C)C)c3Cl)nc2c1 (stereo not drawn) | 147 to 149 °C |
| CC(=O)NCc1ccc2c(c1)N(C1CCN(CCc3cccc(F)c3)CC1)CC2 | 161 to 162 °C |
| C=C1C(O)C(CO)OC1n1cc(CC)c(=O)[nH]c1=O (stereo not drawn) | 137 to 139 °C |
| CCOC(=O)/C=C/c1cnn(C)c1-c1ccoc1 | 82 to 83 °C |
| COc1ccc(C2CNC(=O)C2)cc1Br (stereo not drawn) | 151 to 154 °C |
| C=CCc1c(O)ccc(C(=O)OC)c1O | 65 to 66 °C |
| CN(C)C1(c2ccccc2)CCC(c2[nH]c3ccccc3c2C2CC2)CC1 (stereo not drawn) | 238 to 245 °C |
| COc1ccc(N(c2ccccc2)c2ccc(-c3ccc(-c4ccc(N(c5ccccc5)c5ccc(OC)cc5C)cc4)cc3)cc2)c(C)c1 | 181 to 183 °C |
| CCn1cc(CN(C(=O)C2CCCc3cc(O)ccc32)c2ccc(C(C)C)cc2)cn1 (stereo not drawn) | 146 to 147 °C |
| Cc1cccc2c1C1(COc3cc4c(cc31)OCO4)C(=O)N2Cc1ccc(C(F)(F)F)o1 (stereo not drawn) | 117 to 119 °C |
| O=C(O)CCCCCCCCCCCNC(=O)CCCCCCCCC/C=C/c1ccccc1 | 119 to 121 °C |
| CCS(=O)(=O)Nn1c(=O)[nH]c2cc(C(F)(F)F)c(-n3cnnc3)cc2c1=O | 185 to 195 °C |
| CCOC(=O)CC[C@H](NC(=O)c1ccc([N+](=O)[O-])cc1Cl)C(=O)OCC | 95 to 96 °C |
| CCN(CC)C(=O)n1cnc(S(=O)(=O)CC2CCCC2)n1 | 77 to 79 °C |
| CCOC(=O)C1=C(N)NC(CF)=C(C(=O)OCC)C1c1cccc([N+](=O)[O-])c1 (stereo not drawn) | 177 to 178 °C |
| O=C(O)CC1(c2ccc(F)cc2)CNC(=O)C1 (stereo not drawn) | 174 to 176 °C |
| CON1CCC(=Cc2nc(C(C)(C)C)c(O)c(C(C)(C)C)n2)C1=O | 184 to 186 °C |
| CC(=N)Nc1cc(C)ccc1N1CCOCC1 | 121 °C |
| O=C(c1ccc(-c2ccc(Cl)cc2)cc1)N1CCCc2cc(C=CCN3CCCCC3)ccc21 | 141 to 143 °C |
| CCOC(=O)c1cccc2[nH]c3c(C)ccc(C)c3c12 | 149 °C |
| CS(=O)(=O)OCCn1c2ccc(O)cc2c2c3c(c(-c4c(Cl)cccc4Cl)cc21)C(=O)NC3=O | 255 to 260 °C |
| Cc1[nH]nc(C(F)(F)F)c1-c1cncc(OC2SCC(O)C(O)C2O)c1 (stereo not drawn) | 234 °C |
| N#CC(C#N)=CN(N=C(C#N)C#N)c1ccc([N+](=O)[O-])cc1 | 179 to 181 °C |
| COC1(c2csc(Sc3ccc(/C(C)=N/O)cc3)n2)CCOCC1 | 146 °C |
| CCCC1CCC(O)(c2ccc(CCCCc3ccc(C4(O)CCC(CCC)CC4)cc3)cc2)CC1 (stereo not drawn) | 136 °C |
| CN(C)c1ccc(N=Nc2ccc(S(=O)(=O)NCc3ccc4c(c3)-c3n[nH]c(=O)c5cccc(c35)O4)cc2)cc1 | > 300 °C |
| COc1c(N)cc(C2(C)CC2)cc1NS(C)(=O)=O | 144 to 146 °C |
| CC(=O)N=c1[nH]c2ccccc2n1C1CCNCC1 | 164 °C |

| SMILES | melting point |
| --- | --- |
| CC(C)(C)C(=O)c1ccc(CC(Cc2ccc(C(=O)C(C)(C)C)cc2)C(=O)O)cc1 | 107 to 109 °C |
| COc1nc(=O)[nH]cc1C | 196 to 199 °C |
| CCC(C)c1c(OC)ccc2c1oc1ccc(C#N)cc12 (stereo not drawn) | 80 to 82 °C |
| CC(c1ccccc1)n1cncc1C(N)=O (stereo not drawn) | 136 to 137 °C |
| CC1=C(C(=O)OC(C)(C)C)C(c2cccc(F)c2F)C(C(=O)OC(C)(C)C)=C(C)N1 | 192 to 194 °C |
| Cc1csc2nc3c(c(NC(=O)CN4C(=O)NC(=O)[C@@H]4C)c12)CCCC3 | 273 to 277 °C |
| CC(C)(C)OP(=O)(CO)OC(C)(C)C | 100 to 102 °C |
| C=Cc1cc(CNC(=O)C#Cc2ccc(C(C)(C)C)cc2)cc(F)c1NS(C)(=O)=O | 155 to 157 °C |
| NC(=O)C(Cl)(Cl)CC1(c2cc(Cl)cc(Cl)c2)CO1 (stereo not drawn) | 130 to 133 °C |
| CCc1ccc(OC)c(-c2csc(NC(=O)c3ccc(C(=O)NCCN4CCCC4)cc3)n2)c1 | 170 °C |
| CCCCOC(=O)c1c(CN2CCCCC2)nc2cc(OC)c(OC)cc2c1-c1ccc(OC)c(OC)c1 | 154 to 155 °C |
| COC(=O)c1cc(C(=O)c2ncc3ccc(N(C)C(=O)OC(C)(C)C)cn23)ccc1[N+](=O)[O-] | 55 °C |
| COC(=O)[C@]1(OS(C)(=O)=O)C[C@H](CC(C)C)[C@@H](O)[C@H](O)C1 | 122 to 123 °C |
| CN(C)c1c(S(=O)C(F)(F)F)c(C#N)nn1-c1c(Cl)cc(C(F)(F)F)cc1Cl (stereo not drawn) | 154 to 161 °C |
| CN1C=CCC(C(=O)OC2CCC3C4CCC5=CC(=O)CCC5(C)C4CCC23C)=C1 (stereo not drawn) | 172 to 175 °C |
| COc1cc(C(=O)CS(C)(=O)=O)cc(OC)c1NC(C)=O | 193 to 195 °C |
| CCOC(=O)c1sc(C)c2c1CCCC2=O | 76 to 77 °C |
| CNC(=O)N(C)c1nc(CC(=O)Nc2cccc(C(F)(F)F)c2)cs1 | 125 to 127 °C |
| CCc1csc2[nH]c(=O)c(=O)[nH]c12 | > 300 °C |
| COP(=O)(NC1C(=O)N2C(C(=O)OCc3ccccc3)=C(C=CN(C)C)CSC12)OC (stereo not drawn) | 126 to 128 °C |
| Nc1ncnc2c1ncn2[C@@H]1O/C(=C\F)[C@@H](O)[C@H]1O | 225 to 230 °C |
| CCC(=O)Nc1cccc(C)c1C(=O)O | 152 °C |
| CCOC(=O)c1ccc2snnc2c1 | 74.5 to 77 °C |
| CSc1cn(C)c2cc(C)sc2c1=O | 139 to 142 °C |
| C=CCN(CC=C)c1ccc2[nH]c3cnc(-c4nc(CC)no4)nc3c2c1 | 175 to 184 °C |
| Cc1ccc2c(c1)[nH]c(=O)n2CCCOS(C)(=O)=O | 125 °C |
| COc1ccc(CNC(=O)c2cc([N+](=O)[O-])ccc2NC2CC=CCC2)cc1F (stereo not drawn) | 140 °C |
